These results are taken from patent US11331290B2, “Niclosamide for the treatment of cancer metastasis” (Max-Delbrück-Centrum für Molekulare Medizin in der …, priority 2011, dated 2022).

This experiment has as its system HCT116-CMVp-LUC cells. Description: HCT116-CMVp-LUC intrasplenic xenograft: liver metastasis, tumor growth, overall survival. The class given is in vivo, mice. The conditions noted are these: for median survival: control 24 days. As to the method:
All experiments were performed in accordance with the UKCCCR guidelines and approved by the responsible local authorities (State Office of Health and Social Affairs, Berlin, Germany). HCT116-CMVp-LUC cells (3×10^6 cells per mouse, resuspended in 50 μL PBS) were intrasplenically transplanted into 6-week-old female nonobese diabetic-severe combined immunodeficiency (NOD-SCID) mice. Mice were randomly assigned to 3 groups and reatment of mice started 24 hours after cell transplantation. Mice of the control group (n=9) were treated with daily doses of solvent. Mice of the second group (n=9) were daily treated intraperitoneally with 20 mg per kg niclosamide. Mice of the third group (n=9) were treated intraperitoneally with two doses of 15 mg per kg niclosamide per day. The experimental endpoint was reached when mice appeared moribund and/or the spleen tumor was palpable. This was the case with the majority of control mice on day 24. For long-term in vivo experiments mice randomly assigned to 3 groups. Mice of the control group (n=6) were treated intraperitoneally with daily doses of solvent. Mice of the second group (n=6) were daily treated intraperitoneally with 20 mg per kg niclosamide. Mice of the third group (n=6) were daily treated intraperitoneally for 24 days with 20 mg per kg niclosamide and for the residual days with solvent. Mice were killed by cervical dislocation when tumor reached the maximum in accordance with the local authorities.
Spleen (as the transplantation site) and liver (as a metastasis target organ) were removed. The amount of S100A4 mRNA in the tumor was determined by Trizol RNA isolation of tumor cryosections and quantitative real-time RT-PCR. The level of metastasis was evaluated by scoring. For each liver, a score was calculated as the sum of the volumes of the individual metastases. For each metastasis the formula [width2]×length was applied.
For in vivo luminescence imaging mice were anesthetized with 35 mg per kg Hypnomidate (Jassen-Cilag, Neuss, Germany) and received intraperitoneally 150 mg per kg D-luciferin (Biosynth, Staad, Switzerland) dissolved in sterile PBS. Imaging was performed with the NightOWL LB 981 system (Berthold Technologies, Bad Wildbad, Germany) with exposure times of 1 second and 20 seconds. ImageJ version 2.3 was used for color coding of signal intensity (presenting a 256 grayscale) and overlay pictures.
All calculations and statistical analyses were performed with GraphPad Prism version 4.01. Student t test was used for comparison of only two groups. One-way analysis of variance (ANOVA) was applied for comparing the control group with several treated groups followed by Bonferroni post hoc multiple comparisons. In cell cytotoxicity assay the half-maximal effective concentration to which cell viability was reduced to 50% (EC50) values were calculated by sigmoidal dose-response curve fit of x=log(x) transformed data. Kaplan-Meier analysis was used to plot overall survival and differences in curves were analyzed by Logrank test. All tests were two-sided, and P values less than 0.05 were considered to be statistically significant. If not stated otherwise, means are reported with 95% confidence interval.
(A) In vivo luminescence imaging of metastasis under niclosamide treatment. HCT116-CMVp-LUC cells stably expressing firefly luciferase (LUC) were intrasplenically transplanted into mice (per group n=4) followed by daily intraperitoneal treatment with 20 mg per kg niclosamide. For luminescence imaging, mice were anesthetized at the indicated days and received intraperitoneally D-luciferin. Exposure time for lateral and ventral imaging was 20 seconds per picture. In situ imaging and imaging of isolated organs was performed for 1 second per picture exposure time. Signal intensity of grayscale images (256 scale) were color coded (from low to high signal intensity: blue, green, yellow, red, white) and overlayed with bright field picture. […]

Regarding `O=C(Nc1ccc([N+](=O)[O-])cc1Cl)c1cc(Cl)ccc1O` [niclosamide, 2′,5-dichloro-4′-nitrosalicylanilide], the “liver metastasis score, mean % of control” value worked out at 37.9% (20 mg per kg daily intraperitoneally, 24 days); 36.1% (2×15 mg per kg per day intraperitoneally, 24 days); 10.9% (continuous treatment (20 mg per kg i.p. daily)); 34.9% (discontinuous treatment (20 mg per kg i.p. for 24 days, then solvent)). The “liver metastasis signal, in vivo luminescence imaging” value (20 mg per kg daily intraperitoneally, day 24) is “No or only tiny liver metastasis signals”. The “size of liver metastases” value (20 mg per kg i.p., continuously and discontinuously, vs solvent-treated animals) is reported as “clearly reduced”. The spleen tumor growth entry (20 mg per kg i.p., either continuously or discontinuously, vs solvent-treated mice) is given as “clearly delayed”. The “liver metastasis, mean difference control vs treatment” value by setting is: (continuous treatment) 89.1%; (discontinuous treatment) 65.1%. Besides, the “median survival ratio control vs treatment” value runs as follows: (continuous treatment) 0.56; (discontinuous treatment) 0.52. Further, the median survival reads like this: (continuous treatment: 20 mg per kg i.p. daily) 43 days; (discontinuous treatment: 20 mg per kg i.p. daily for 24 days, then solvent) 46.5 days.
